The values that follow come from ChEMBL document CHEMBL5727751, “Use of aza-tryptanthrin derivatives as inhibitors of IDO1 and/or TDO” (2020).

Indoleamine 2,3-dioxygenase 1, sequence (P14902 whole entry): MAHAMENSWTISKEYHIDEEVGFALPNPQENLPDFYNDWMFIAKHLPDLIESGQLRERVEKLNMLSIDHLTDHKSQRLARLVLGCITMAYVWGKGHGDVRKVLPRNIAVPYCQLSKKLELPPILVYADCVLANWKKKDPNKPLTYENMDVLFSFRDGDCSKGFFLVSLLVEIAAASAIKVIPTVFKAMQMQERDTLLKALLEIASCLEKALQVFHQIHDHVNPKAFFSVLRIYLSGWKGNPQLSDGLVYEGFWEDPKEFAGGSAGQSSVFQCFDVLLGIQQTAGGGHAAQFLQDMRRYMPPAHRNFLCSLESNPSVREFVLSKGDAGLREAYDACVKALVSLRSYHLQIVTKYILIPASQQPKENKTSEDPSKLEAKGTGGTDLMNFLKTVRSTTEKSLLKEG

The assay has as its target Indoleamine 2,3-dioxygenase 1 (Homo sapiens, UniProt P14902). Briefly: Indoleamine-2,3-Dioxygenase 1 Inhibitory Activity: Experimental method: IDO-1 can oxidatively cleave the indole ring of tryptophan to form N-formylkynurenine. Referring to the method in the literature (Eddy W. Yue, et al. J. Med. Chem. 2009, 52, 7364-7367), 20 nM IDO-1, 2 mM D-tryptophan, 20 mM ascorbic acid, 3.5M methyl blue and 0.2 mg/mL antioxidant enzyme were sequentially added to 50 mM potassium phosphate buffer at room temperature. Due to the formation of N-formylkynurenine, the reaction rate was recorded by the increasing absorbance of the solution at 321 nm. IC50 values were calculated using Prism GraphPad software.
As a reminder, the IC50 is the concentration at which inhibition is half-maximal. For `O=C1c2cc(F)ccc2-n2c1nc1ncccc1c2=O`, the IC50 is 1 to 100 nM.

For the molecule `O=C1c2cc(Cl)ccc2-n2c1nc1ncccc1c2=O`, the half-maximal inhibitory concentration (IC50) was 1 to 100 nM.

`O=C1c2cc(OC(F)(F)F)ccc2-n2c1nc1ncccc1c2=O`: the IC50 is 1 to 100 nM.

With `O=C1c2cc([N+](=O)[O-])ccc2-n2c1nc1ncccc1c2=O`, the IC50 was 1 to 100 nM.

Take `CN(C)C(=S)NN=C1c2cc([N+](=O)[O-])ccc2-n2c1nc1ncccc1c2=O`: the IC50 is 1 to 100 nM.

As for `CN(C)CCON=C1c2cc([N+](=O)[O-])ccc2-n2c1nc1ncccc1c2=O`, the IC50 was 1 to 100 nM.

Turning to `NC(=S)NN=C1c2cc([N+](=O)[O-])ccc2-n2c1nc1ncccc1c2=O`, the IC50 was 1 to 100 nM.

With `O=C1c2cnccc2-n2c1nc1ncccc1c2=O`, the IC50 was 1 to 100 nM.

In the case of `N=C(N)NN=C1c2cc([N+](=O)[O-])ccc2-n2c1nc1ncccc1c2=O`, the IC50 was 1 to 100 nM.
